Assay results published in patent US20240103015A1, “METHODS FOR ASSAYING SLC34A2 EXPRESSION IN MUSCLE TISSUE AND TREATING FACIOSCAPULOHUMERAL MUSCULAR DYSTROPHY” (University of Maryland, Baltimore, priority 2022, published 2024).

How the values were obtained:
[1] = system: DUX4 target genes (MBD3L2, LEUTX, SLC34A2); assay: qPCR of DUX4 target gene mRNAs in FSHD xenografts of treated mice; assay type: in vivo, mouse
Method: Xenografts are treated starting at 5 weeks after initial engraftment. Dosage is 10 mg/kg BID, injected IP.

[2] = system: SLC34A2 protein in C6 (FSHD) myotubes; assay: Immunoblot of SLC34A2 protein in cultured FSHD myotubes treated with p38 kinase inhibitors; assay type: cell-based, human; details: for expression of the SLC34A2 protein: cultured C6 (FSHD) myotubes
Description: (i): We have adapted and improved our procedures to assay for SLC34A2 mRNA and protein in myotubes of immortalized myoblasts derived from FSHD and healthy individuals. To establish the validity of our assays, we use losmapimod and other p38 kinase inhibitors.

[3] = system: SLC34A2 protein at the surface of FSHD myotubes; assay: Surface labeling of SLC34A2 protein on FSHD myotubes with and without losmapimod; assay type: cell-based, human
Description: FIG. 20. Labeling of SLC34A2 protein at the surface of FSHD myotubes, with and without treatment with losmapimod. […] FIG. 21. Relative intensities of surface labeling of SLC34A2 in FSHD myotubes with and without losmapimod treatment, as in FIG. 20, normalized to the desmin signal in each ROI. *, p<0.05.

[4] = system: DUX4, SLC34A2 and other downstream gene products of DUX4; assay: Relative mRNA expression of DUX4 and downstream genes in FSHD myotubes with and without losmapimod; assay type: cell-based, human
Description: FIG. 22. Relative mRNA expression of DUX4, SLC34A2, and other downstream gene products of DUX4, in the presence and absence of losmapimod. *, p<0.05, **, p<0.01.

SLC34A2 [5] = details: cited from earlier work
SLC34A2 [6] = target: T1, SLC34A2 (Homo sapiens, UniProt O95436); assay: Immunofluorescent labeling of frozen sections of xenografts with MX35; assay type: binding; details: control grafts generated with A4 cells
T1 construct: from tissue; host or cells: Xenografts of human FSHD myoblasts (C6, 15A; controls A4, 15V) in the tibialis anterior of NRG mice
T1 sequence (O95436 1-689 isoform O95436-2 D633G): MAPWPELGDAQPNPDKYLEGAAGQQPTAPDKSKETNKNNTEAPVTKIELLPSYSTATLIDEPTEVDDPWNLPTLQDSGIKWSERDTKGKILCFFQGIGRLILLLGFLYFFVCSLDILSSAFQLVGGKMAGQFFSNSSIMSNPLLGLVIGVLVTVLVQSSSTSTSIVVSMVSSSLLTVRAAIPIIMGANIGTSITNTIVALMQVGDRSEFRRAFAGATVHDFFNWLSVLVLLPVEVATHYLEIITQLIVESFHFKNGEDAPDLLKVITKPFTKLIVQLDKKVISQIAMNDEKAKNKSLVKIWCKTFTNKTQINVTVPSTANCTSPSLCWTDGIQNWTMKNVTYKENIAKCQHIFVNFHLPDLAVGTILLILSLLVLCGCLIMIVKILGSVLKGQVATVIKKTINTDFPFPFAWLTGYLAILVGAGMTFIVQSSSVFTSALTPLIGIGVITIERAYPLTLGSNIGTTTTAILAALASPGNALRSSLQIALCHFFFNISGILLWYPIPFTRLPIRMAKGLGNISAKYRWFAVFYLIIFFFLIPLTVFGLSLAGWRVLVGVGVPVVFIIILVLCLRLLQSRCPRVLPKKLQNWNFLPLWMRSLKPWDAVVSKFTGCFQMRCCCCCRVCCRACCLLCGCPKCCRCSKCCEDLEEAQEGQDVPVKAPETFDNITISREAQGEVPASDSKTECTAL
Description: (§1) Antibodies: MX35 is a mouse mAb from the Sloan-Kettering Research Institute. Biotinylation and conjugation of MX35 or its Fab fragments, to Alexa fluorophores from InVitrogen/ThermoFisher, will follow manufacturer's instructions. Rabbit mAbs to the N- and C-terminal regions of SLC34A2 (Cell Signaling) are used at 1:100 dilutions. Fluorescent secondary antibodies and streptavidin are available commercially.
(§2) Immunofluorescence: Mice will be euthanized and blood samples taken. Muscles will be collected and either snap frozen or processed for PCR or immunoblotting. Frozen muscles will be-sectioned on a cryostat and labeled for biotinylated MX35 with fluorescent streptavidin or antibodies to biotin. Double labeling with rabbit anti-SLC34A2 antibodies will be performed to confirm the identity of positive fibers. Additional labeling with human-specific antibodies (e.g., to β-spectrin, lamin followed by isoform-specific secondary antibodies will be used to confirm the identify of fibers of human origin in the xenografts, as: necessary.
(§3) Results: We used immortalized C6 myoblasts (14) to generate xenografts in the Tibialis anterior muscles of NRG mice. Cross sections of the graft show similar immunofluorescent labeling by MX35 and a rabbit Ab to the C-terminus of SLC34A2 (FIG. 6). […]

SLC34A2 [7] = target: T2, SLC34A2 (Homo sapiens, UniProt O95436, D634G); assay: as above; assay type: binding; details: FSHD (C6) xenografts in Tibialis anterior of NRG mice
T2 construct: from tissue; host or cells: Xenografts of human FSHD myoblasts (C6, 15A; controls A4, 15V) in the tibialis anterior of NRG mice
T2 sequence (O95436 1-689 isoform O95436-2 D633G): T1 sequence (O95436 1-689 isoform O95436-2 D633G)
Description: as §1, §2, §3

SLC34A2 [8] = target: T2, SLC34A2; assay: Immunoprecipitation of SLC34A2 from extracts of FSHD muscle cells in culture; assay type: binding
Description: FIG. 13. Immunoblots of FSHD and control myotubes with antibodies to the C- and N-termini of SLC34A2 (A) and after immunoprecipitation with MX35 (B), followed by blotting.

SLC34A2 [9] = target: T2, SLC34A2; assay: Immunolabeling of living FSHD (C6) and control (A4) myotubes; assay type: binding; details: FSHD (C6) vs control (A4) myotubes
Description: FIG. 14. Immunolabeling of living FSHD (C6) and control (A4) myotubes with MX35 and control IgG. DAPI was used as a counterstain (blue). Bound MX35 and control IgG were recognized with Alexa-568 labeled goat anti-mouse IgG (red).

[10] = target: T3, SLC34A2 in FSHD xenografts (Homo sapiens, UniProt O95436); assay: IVIS imaging of living mice carrying xenografts after injection of fluorescent antibody; assay type: in vivo, mouse; details: living mice (IVIS) and frozen sections
T3 construct: from tissue; host or cells: Xenografts of human FSHD myoblasts (C6, 15A; controls A4, 15V) in the tibialis anterior of NRG mice
T3 sequence (O95436 1-689 isoform O95436-2 D633G): T1 sequence (O95436 1-689 isoform O95436-2 D633G)
Description: (ii): Given the level of variability we observe in our xenografts, and the small numbers of FSHD myofibers in the grafts generated by some of the FSHD cell lines we have been studying, we thought it important to be able to monitor the diseased myofibers in living mice. Our approach is to inject mice with an infrared fluorescent version of a monoclonal antibody to SLC34A2, MX-35, that recognizes an extracellular epitope of the protein and that has been used clinically with patients with ovarian cancer. This approach should allow us to estimate the lifetime of the fibers once they become positive for SLC34A2, and, using different IR fluorophores, what the rate of appearance of newly positive fibers is in our grafts. It could also be used to test potential treatments for FSHD both in mice and in clinical trials with FSHD patients.
Injection and Imaging: Mice will be injected IV with fluorescent mAb or Fab fragments either through the tail vein or retroorbitally, with 150 μg of the biotinylated antibodyfluorophore conjugate in […]. Imaging in a Xenogen IVIS Spectrum Optical In Vivo imaging System (Perkin Elmer), will begin 2 hr later, repeated daily for 3 days, and at longer intervals thereafter. Repeated injections will also be done at regular intervals, to be determined, based on the levels of the antibody-conjugate remaining in circulation.

SLC34A2 [11] = details: epithelia and cancers; cited from earlier work
[12] = 10 mg/kg BID IP from 5 weeks after engraftment

labeling of control graft sections (SLC34A2 [6]) | immunoprecipitation of SLC34A2 (SLC34A2 [8]) | Compound | expression of the mRNAs encoding DUX4 target genes, including SLC34A2 [1] | LEUTX reduction in expression [1, 12] | MBD3L2 reduction in expression [1, 12] | SLC34A2 reduction in expression [1, 12] [%] | expression of the SLC34A2 protein [2] | SLC34A2 protein level ([2]; cultured FSHD myotubes, immunoblots) [fold] | surface labeling signal of SLC34A2 protein [3] | mRNAs encoding DUX4, SLC34A2 and other gene products downstream of DUX4 [4] | expression of SLC34A2 (SLC34A2 [5]) | recognition of SLC34A2 in xenograft sections (SLC34A2 [7]) | labeling of the surface of living myotubes (SLC34A2 [9]) | detection of antibody-tagged fibers in grafts [10] | binding to SLC34A2 (SLC34A2 [11])
 |  | CC(C)(C)Cn1c(N)nc2ccc(-c3[nH]c(C(C)(C)C)nc3-c3ccc(F)cc3)nc21 [LY222820, ralimetinib] | reduces expression | 60-70% | 60-70% | 41 | Decreased expression |  |  |  |  |  |  |  | 
 |  | Cc1c(F)cc(C(=O)NC2CC2)cc1-c1ccc(C(=O)NCC(C)(C)C)cn1 [losmapimod] |  |  |  |  | Decreased expression | −2 | reduces this signal significantly | reduces the mRNAs encoding DUX4 and SLC34A2 | reduces the expression of SLC34A2 |  |  |  | 
no labeling | can immunoprecipitated SLC34A2 | MX35 |  |  |  |  |  |  |  |  |  | recognizes SLC34A2 in mature FSHD skeletal muscle | specifically labels the surface of intact living FSHD myotubes, but not control, healthy myotubes | can be detected in FSHD but not control grafts | bind SLC34A2 present in epithelia and cancers
